As for `COc1cc2c(cc1-c1cccc(C(=O)N(C)C)c1)-c1c(-c3cccs3)nc(C(=O)N(C)C(C)(C)C)n1CC2` [Example 2n, 9-(3-Dimethylcarbamoyl-phenyl)-8-methoxy-1-thiophen-2-yl-5,6-dihydro-imidazo[5,1-a]iso-quinoline-3-carboxylic acid tert-butyl-methyl-amide], the melting point (usually the temperature, or range, at which the solid turns liquid) was 151 °C.

`COc1cc2c(cc1-c1cccc(S(C)(=O)=O)c1)-c1c(-c3cccs3)nc(C(=O)N(C)C(C)(C)C)n1CC2` [Example 2p, 9-(3-Methanesulfonyl-phenyl)-8-methoxy-1-thiophen-2-yl-5,6-dihydro-imidazo[5,1-a]isoquinoline-3-carboxylic acid tert-butyl-methyl-amide] came in with a melting point of 216 °C.

Consider `COc1ccccc1-c1cc2c(cc1OC)CCn1c(C(=O)N(C)C(C)(C)C)nc(-c3cccs3)c1-2` [Example 2q, 8-Methoxy-9-(2-methoxy-phenyl)-1-thiophen-2-yl-5,6-dihydro-imidazo[5,1-a]isoquinoline-3-carboxylic acid tert-butyl-methyl-amide], for which the melting point is 188 to 189 °C.

On to `COc1cc2c(cc1-c1ccc3c(c1)OCO3)-c1c(-c3cccs3)nc(C(=O)N(C)C(C)(C)C)n1CC2` [Example 2r, 9-Benzo[1,3]dioxol-5-yl-8-methoxy-1-thiophen-2-yl-5,6-dihydro-imidazo[5,1-a]isoquinoline-3-carboxylic acid tert-butyl-methyl-amide], for which the melting point stood at 162 °C.

`COc1cc2c(cc1C(=O)Nc1nncs1)-c1c(-c3cccs3)nc(C(=O)N(C)C(C)(C)C)n1CC2` [Example 3e, 8-Methoxy-1-thiophen-2-yl-5,6-dihydro-imidazo[5,1-a]isoquinoline-3,9-dicarboxylic acid 3-(tert-butyl-methyl-amide) 9-[1,3,4]thiadiazol-2-ylamide] showed a melting point of 154 to 156 °C.

In turn, `CCc1nnc(NC(=O)c2cc3c(cc2OC)CCn2c(C(=O)N(C)C(C)(C)C)nc(-c4cccs4)c2-3)s1` [Example 4, 8-Methoxy-1-thiophen-2-yl-5,6-dihydro-imidazo[5,1-a]isoquinoline-3,9-dicarboxylic acid 3-(tert-butyl-methyl-amide) 9-[(5-ethyl-[1,3,4]thiadiazol-2-yl)-amide]] yielded a melting point of 238 to 240 °C.

As for `COc1cc2c(cc1C(=O)NC(C)C)-c1c(-c3cccs3)nc(C(=O)N(C)C(C)(C)C)n1CC2` [Example 5, 8-Methoxy-1-thiophen-2-yl-5,6-dihydro-imidazo[5,1-a]isoquinoline-3,9-dicarboxylic acid 3-(tert-butyl-methyl-amide) 9-isopropylamide], the melting point fell in the range of 197 to 198 °C.

Compound `COc1cc2c(cc1NC(=O)c1cccnc1)-c1c(-c3cccs3)nc(C(=O)N(C)C(C)(C)C)n1CC2` [Example 9, 8-Methoxy-9-[(pyridine-3-carbonyl)-amino]-1-thiophen-2-yl-5,6-dihydro-imidazo[5,1-a]isoquinoline-3-carboxylic acid tert-butyl-methyl-amide] came in with a melting point of 159 to 161 °C.

As to `COc1cc2c(cc1NC(=O)c1nccs1)-c1c(-c3cccs3)nc(C(=O)N(C)C(C)(C)C)n1CC2` [Example 10, 8-Methoxy-9-[(thiazole-2-carbonyl)-amino]-1-thiophen-2-yl-5,6-dihydro-imidazo[5,1-a]isoquinoline-3-carboxylic acid tert-butyl-methyl-amide], the melting point fell in the range of 185 to 186 °C.

The compound `COc1cc2c(cc1NC(=O)c1cscn1)-c1c(-c3cccs3)nc(C(=O)N(C)C(C)(C)C)n1CC2` [Example 11, 8-Methoxy-9-[(thiazole-4-carbonyl)-amino]-1-thiophen-2-yl-5,6-dihydro-imidazo[5,1-a]isoquinoline-3-carboxylic acid tert-butyl-methyl-amide] had a melting point of 240 to 242 °C.

The compound `COc1cc2c(cc1NC(=O)c1csnn1)-c1c(-c3cccs3)nc(C(=O)N(C)C(C)(C)C)n1CC2` [Example 12, 8-Methoxy-9[([1,2,3]thiadiazole-4-carbonyl)-amino]-1-thiophen-2-yl-5,6-dihydro-imidazo[5,1-a]isoquinoline-3-carboxylic acid tert-butyl-methyl-amide] showed a melting point of 210 to 212 °C.

Turning to `COc1cc2ccn3c(C(=O)N(C)C(C)(C)C)nc(-c4cccs4)c3c2cc1C=C(C)C` [Example 16e, 8-Methoxy-9-(2-methyl-propenyl)-1-thiophen-2-yl-imidazo[5,1-a]isoquinoline-3-carboxylic acid tert-butyl-methyl-amide], the melting point was in the range of 121 to 123 °C.

Compound `COc1cc2ccn3c(C(=O)N(C)C(C)(C)C)nc(-c4cccs4)c3c2cc1-c1cnn(C)c1` [Example 17b, 8-Methoxy-9-(1-methyl-1H-pyrazol-4-yl)-1-thiophen-2-yl-imidazo[5,1-a]isoquinoline-3-carboxylic acid tert-butyl-methyl-amide] came in with a melting point of 239 to 241 °C.

In the case of `COc1cc2c(cc1CC(C)C)-c1c(-c3cccs3)nc(C(=O)N(C)C(C)(C)C)n1CC2` [Example 18k, 9-Isobutyl-8-methoxy-1-thiophen-2-yl-5,6-dihydro-imidazo[5,1-a]isoquinoline-3-carboxylic acid tert-butyl-methyl-amide], the melting point came out at 124 °C.

`CC(C)Cc1ccc2c(c1)-c1c(-c3cccs3)nc(C(=O)N(C)C(C)(C)C)n1CC2` [Example 20b, 9-Isobutyl-1-thiophen-2-yl-5,6-dihydro-imidazo[5,1-a]isoquinoline-3-carboxylic acid tert-butyl-methyl-amide]: the melting point is 126 °C.

Compound `CCN(C(=O)c1nc(-c2cccs2)c2n1CCc1cc(OC)c(OCCO)cc1-2)C(C)(C)C` [Example 34b, 9-(2-Hydroxy-ethoxy)-8-methoxy-1-thiophen-2-yl-5,6-dihydro-imidazo[5,1-a]isoquinoline-3-carboxylic acid tert-butyl-ethyl-amide] showed a melting point of 178 to 186 °C.

`COc1cc2c(cc1CC(C)C)-c1c(-c3ncco3)nc(C(=O)N(C)C(C)(C)C)n1CC2` [Example 37f, 9-Isobutyl-8-methoxy-1-oxazol-2-yl-5,6-dihydro-imidazo[5,1-a]isoquinoline-3-carboxylic acid tert-butyl-methyl-amide] displayed a melting point of 147 to 148 °C.

Turning to `COc1cc2c(cc1CC(C)C)-c1c(-c3cncs3)nc(C(=O)N(C)C(C)(C)C)n1CC2` [Example 38, 9-Isobutyl-8-methoxy-1-thiazol-5-yl-5,6-dihydro-imidazo[5,1-a]isoquinoline-3-carboxylic acid tert-butyl-methyl-amide], the melting point lay within 144 to 145 °C.

`COc1cc2c(cc1C=C(F)F)-c1c(-c3cccs3)nc(C(=O)N(C)C(C)(C)C)n1CC2` [Example 39, 9-(2,2-Difluoro-vinyl)-8-methoxy-1-thiophen-2-yl-5,6-dihydro-imidazo[5,1-a]isoquinoline-3-carboxylic acid tert-butyl-methyl-amide]: the melting point lay within 154 to 155 °C.

For the compound `CCOc1ccc2c(c1)CCn1c(C(=O)N(C)C(C)(C)C)nc(-c3cccs3)c1-2` [Example 40c, 8-Ethoxy-1-thiophen-2-yl-5,6-dihydro-imidazo[5,1-a]isoquinoline-3-carboxylic acid tert-butyl-methyl-amide], the melting point is 111 to 112 °C.

Consider `COc1cc2c(cc1CCC(C)(C)O)-c1c(-c3cccs3)nc(C(=O)N(C)C(C)(C)C)n1CC2` [Example 41c, 9-(3-Hydroxy-3-methyl-butyl)-8-methoxy-1-thiophen-2-yl-5,6-dihydro-imidazo[5,1-a]isoquinoline-3-carboxylic acid tert-butyl-methyl-amide], for which the melting point is 140 to 143 °C.

`COc1cc2c(cc1Oc1ccccc1)-c1c(-c3cccs3)nc(C(=O)N(C)C(C)(C)C)n1CC2` [Example 42b, 8-Methoxy-9-phenoxy-1-thiophen-2-yl-5,6-dihydro-imidazo[5,1-a]isoquinoline-3-carboxylic acid tert-butyl-methyl-amide]: the melting point lay in the range of 122 to 126 °C.

Compound `COc1cccc(Oc2cc3c(cc2OC)CCn2c(C(=O)N(C)C(C)(C)C)nc(-c4cccs4)c2-3)c1` [Example 43b, 8-Methoxy-9-(3-methoxy-phenoxy)-1-thiophen-2-yl-5,6-dihydro-imidazo[5,1-a]isoquinoline-3-carboxylic acid tert-butyl-methyl-amide] gave a melting point of 123 to 124 °C.

`COc1cc2c(cc1OC(C)C)-c1c(-c3cncs3)nc(C(=O)N(C)C(C)(C)C)n1CC2` [Example 47e, 9-Isopropoxy-8-methoxy-1-thiazol-5-yl-5,6-dihydro-imidazo[5,1-a]isoquinoline-3-carboxylic acid tert-butyl-methyl-amide] came in with a melting point of 112 to 114 °C.

`COc1cc2c(c(F)c1CC(C)C)-c1c(-c3cccs3)nc(C(=O)N(C)C(C)(C)C)n1CC2` [Example 48j, 10-Fluoro-9-isobutyl-8-methoxy-1-thiophen-2-yl-5,6-dihydro-imidazo[5,1-a]isoquinoline-3-carboxylic acid tert-butyl-methyl-amide] returned a melting point of 141 to 142 °C.

The values above are taken from US8071587B2, “(Dihydro)imidazoiso[5,1-A]quinolines” (N. V. Organon, priority 2009, dated 2011).
